In assay [1] the target is T1, purified Human plasma kallikrein (Homo sapiens, UniProt P03952).
T1 construct: yields a heavy chain (371 amino acids) and a light chain (248 amino acids); purchased Enzyme Research Laboratories
As to the kind of experiment: Kallikrein Assay. The assay is classed as biochemical. The settings on record: purified Human plasma kallikrein 0.5 nM; substrate Acetyl-K-P-R-AFC; 50 mM HEPES pH 7.4; Ki from IC50 by Cheng Prusoff equation; read-out: Hu P. Kallikrein. The procedure: The effectiveness of a compound of the present invention as an inhibitor of Kallikrein can be determined using a relevant purified serine protease, and an appropriate synthetic substrate. The rate of hydrolysis of the chromogenic or fluorogenic substrate by the relevant serine protease was measured both in the absence and presence of compounds of the present invention. Assays were conducted at room temperature or at 37° C. […] A decrease in the rate of fluorescence change in the presence of inhibitor is indicative of enzyme inhibition. Such methods are known to one skilled in the art. The results of this assay are expressed as the inhibitory constant, Ki. Kallikrein determinations were made in 50 mM HEPES buffer at pH 7.4 containing 150 mM NaCl, 5 mM CaCl2, and 0.1% PEG 8000 (polyethylene glycol; Fisher Scientific). Determinations were made using purified Human plasma kallikrein at a final concentration of 0.5 nM (Enzyme Research Laboratories) and the synthetic substrate, Acetyl-K—P-R-AFC (Sigma # C6608) at a concentration of […]. Activity assays were performed by diluting a stock solution of substrate at least tenfold to a final concentration ≤0.2 Km into a solution containing enzyme or enzyme equilibrated with inhibitor. Times required to achieve equilibration between enzyme and inhibitor were determined in control experiments. The reactions were performed under linear progress curve conditions and fluorescence increase measured at 405 Ex/510 Em nm. Values were converted to percent inhibition of the control reaction (after subtracting 100% Inhibition value). IC50 was determined by inflection point from a four parameter logistic curve fit. Ki was calculated using the Cheng Prusoff equation, Ki=IC50/(1+([S]/Km)). The activities shown by this assay indicate that the compounds of the invention may be therapeutically useful for treating or preventing various cardiovascular and/or cerebrovascular thromboembolic conditions in patients suffering from unstable angina, acute coronary syndrome, refractory angina, myocardial infarction, transient ischemic attacks, atrial fibrillation, stroke such as thrombotic stroke or embolic stroke, venous thrombosis, coronary and cerebral arterial thrombosis, cerebral and pulmonary embolism, atherosclerosis, deep vein thrombosis, disseminated intravascular coagulation, and reocclusion or restenosis of recanalized vessels.

Assay [2] addresses T2, purified human Factor XIa (Homo sapiens, UniProt P03951).
T2 construct: purified human Factor XIa; purchased Sekisui Diagnostics
As to the kind of experiment: Factor XIa Assay. The settings on record: purified human Factor XIa 40 pM; substrate Z-Gly-Pro-Arg-AFC 100 μM; 50 mM HEPES pH 7.4; read-out: Hu FXIa Ki. The class given is biochemical. An outline of the steps:
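Purified human FXIa at 40 pM, in 50 mM HEPES pH 7.4 with 150 mM NaCl, 5 mM CaCl2 and 0.1% PEG 8000, was preequilibrated with inhibitor. Initial hydrolysis rates of Z-Gly-Pro-Arg-AFC were then measured at room temperature or 37 °C. Ki was derived from Vo/Vi = 1 + [I]/Ki, assuming competitive inhibition.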

Structures are written as SMILES. pKi: −log10 of the molar value.

T1 sequence (P03952 391-638 limits assumed): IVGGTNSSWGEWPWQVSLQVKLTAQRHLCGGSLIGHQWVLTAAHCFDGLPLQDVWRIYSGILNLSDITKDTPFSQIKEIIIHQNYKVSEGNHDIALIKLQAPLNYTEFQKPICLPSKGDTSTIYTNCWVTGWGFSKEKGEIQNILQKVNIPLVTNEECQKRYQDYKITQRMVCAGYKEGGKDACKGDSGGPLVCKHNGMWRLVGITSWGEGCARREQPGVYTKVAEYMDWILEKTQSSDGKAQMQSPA
T1 sequence (P03952 20-390 partner limits assumed): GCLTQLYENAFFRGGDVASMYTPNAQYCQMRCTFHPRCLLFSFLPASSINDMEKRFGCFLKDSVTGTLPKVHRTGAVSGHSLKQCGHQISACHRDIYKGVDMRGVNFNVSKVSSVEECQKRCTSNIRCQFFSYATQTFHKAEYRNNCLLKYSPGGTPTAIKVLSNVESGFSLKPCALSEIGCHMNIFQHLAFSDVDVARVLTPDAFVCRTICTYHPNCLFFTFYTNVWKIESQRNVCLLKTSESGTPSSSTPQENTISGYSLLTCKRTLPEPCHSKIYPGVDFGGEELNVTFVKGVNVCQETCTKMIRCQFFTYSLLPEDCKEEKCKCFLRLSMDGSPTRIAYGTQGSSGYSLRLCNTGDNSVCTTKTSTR
T2 sequence (P03951 388-625 limits assumed): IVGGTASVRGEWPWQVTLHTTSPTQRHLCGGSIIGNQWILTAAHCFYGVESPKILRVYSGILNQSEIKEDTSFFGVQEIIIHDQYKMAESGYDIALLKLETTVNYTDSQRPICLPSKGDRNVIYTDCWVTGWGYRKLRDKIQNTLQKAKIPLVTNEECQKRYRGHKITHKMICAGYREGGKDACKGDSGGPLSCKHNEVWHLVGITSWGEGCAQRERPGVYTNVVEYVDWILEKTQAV
T2 sequence (P03951 19-387 partner limits assumed): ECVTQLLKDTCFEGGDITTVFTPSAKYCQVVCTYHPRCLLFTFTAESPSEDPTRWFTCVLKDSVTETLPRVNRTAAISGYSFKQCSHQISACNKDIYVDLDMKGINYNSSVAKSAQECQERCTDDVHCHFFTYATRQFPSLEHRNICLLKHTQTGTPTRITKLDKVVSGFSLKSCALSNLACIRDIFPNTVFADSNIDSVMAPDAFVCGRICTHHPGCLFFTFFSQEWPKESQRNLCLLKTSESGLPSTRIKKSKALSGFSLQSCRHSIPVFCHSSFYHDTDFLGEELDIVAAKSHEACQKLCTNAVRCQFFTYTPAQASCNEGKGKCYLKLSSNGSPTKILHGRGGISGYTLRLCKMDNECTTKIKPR

For the molecule `COC(=O)Nc1ccc2c(c1)NC(=O)CCCC[C@@H](C(=O)N1CCC[C@@]3(C1)OC(=O)Nc1ccc(Cl)c(F)c13)c1nc-2c(C)[nH]1` (single isomer, unassigned) [Example 12b], the results for the pKi in assay [1] and in assay [2] were 8.89 and 9.03, respectively.

For the molecule `COC(=O)Nc1ccc2c(c1)NC(=O)CCCC[C@@H](C(=O)N1CC[C@@]3(C1)OC(=O)Nc1ccc(Cl)c(F)c13)c1cccc-2n1` (single isomer, unassigned) [Example 23b], the pKi was 8.07 in assay [1] and 7.35 in assay [2].

On to `COC(=O)Nc1ccc2c(c1)NC(=O)CCCCC(C(=O)N1CCC[C@@]3(C1)OC(=O)Nc1ccc(Cl)c(F)c13)c1nc-2c(C)[nH]1` (mixture of isomers) [Example 12, methyl ((Z)-9-((R)-6-chloro-5-fluoro-2-oxo-1,2-dihydrospiro[benzo[d][1,3]oxazine-4,3′-piperidine]-1′-carbonyl)-1^5-methyl-4-oxo-1^1H-3-aza-1(4,2)-imidazola-2(1,2)-benzenacyclononaphane-2^4-yl)carbamate], for which the pKi is 8.89 in assay [1] and 8.57 in assay [2].

Consider `COC(=O)Nc1ccc2c(c1)NC(=O)CCCC[C@H](NC(=O)N1CC[C@@]3(C1)OC(=O)Nc1ccc(Cl)cc13)c1nc-2c[nH]1` [Example 38, methyl ((S,Z)-9-((R)-6-chloro-2-oxo-1,2-dihydrospiro[benzo[d][1,3]oxazine-4,3′-pyrrolidine]-1′-carboxamido)-4-oxo-11H-3-aza-1(4,2)-imidazola-2(1,2)-benzenacyclononaphane-2^4-yl)carbamate], for which the values for the pKi in assay [1] and in assay [2] were 8.35 and 7.79, respectively.

As for `COC(=O)Nc1ccc2c(c1)NC(=O)[C@H](C)CCC[C@@H](C(=O)N1CCC[C@@]3(C1)OC(=O)Nc1ccc(Cl)c(F)c13)C1=NC=C2O1` [Example 14a, methyl ((5R,9R)-9-((R)-6-chloro-5-fluoro-2-oxo-1,2-dihydrospiro[benzo[d][1,3]oxazine-4,3′-piperidine]-1′-carbonyl)-5-methyl-4-oxo-3-aza-1(5,2)-oxazola-2(1,2)-benzenacyclononaphane-2^4-yl)carbamate], the pKi in assay [1] is 8.26; in assay [2], 7.87.

For the molecule `COC(=O)Nc1ccc2c(c1)NC(=O)CCCCC(C(=O)N1CC[C@@]3(C1)OC(=O)Nc1ccc(Cl)c(F)c13)c1nc-2c(Cl)[nH]1` (mixture of isomers) [Example 9, methyl ((Z)-1^5-chloro-9-((R)-6-chloro-5-fluoro-2-oxo-1,2-dihydrospiro[benzo[d][1,3]oxazine-4,3′-pyrrolidine]-1′-carbonyl)-4-oxo-1^1H-3-aza-1(4,2)-imidazola-2(1,2)-benzenacyclononaphane-2^4-yl)carbamate], the pKi in assay [1] is 9.24; in assay [2], 9.47.

With `COC(=O)Nc1ccc2c(c1)NC(=O)C(C)CCCC(C(=O)N1CCC[C@@]3(C1)OC(=O)Nc1ccc(Cl)cc13)c1cc-2ccn1` (single isomer, unassigned) [Example 15a], the pKi in assay [1] was 8.77; in assay [2] it was 7.51.

Regarding `COC(=O)Nc1ccc2c(c1)NC(=O)CCCC[C@@H](C(=O)N1CC[C@@]3(C1)OC(=O)Nc1ccc(Cl)c(F)c13)c1ccnc-2c1` [Example 25a, methyl ((R)-9-((R)-6-chloro-5-fluoro-2-oxo-1,2-dihydrospiro[benzo[d][1,3]oxazine-4,3′-pyrrolidine]-1′-carbonyl)-4-oxo-3-aza-1(2,4)-pyridina-2(1,2)-benzenacyclononaphane-2^4-yl)carbamate], the pKi was 9.12 in assay [1] and 8.89 in assay [2].

For `COC(=O)Nc1ccc2c(c1)NC(=O)CCCC[C@@H](C(=O)N1CC[C@@]3(C1)OC(=O)Nc1ccc(Cl)cc13)c1nc-2c[nH]1` (single isomer, unassigned) [Example 1a], the values for the pKi in assay [1] and in assay [2] were 8.70 and 8.63, respectively.

With `CCOC(=O)C1C/C=C/CC(C(=O)N2CCC[C@@]3(C2)OC(=O)Nc2ccc(Cl)c(F)c23)c2nc(c[nH]2)-c2ccc(NC(=O)OC)cc2N1` (stereo partly drawn) [Example 31, ethyl (1^2Z,6E)-9-((R)-6-chloro-5-fluoro-2-oxo-1,2-dihydrospiro[benzo[d][1,3]oxazine-4,3′-piperidine]-1′-carbonyl)-2^4-((methoxycarbonyl)amino)-1^1H-3-aza-1(4,2)-imidazola-2(1,2)-benzenacyclononaphan-6-ene-4-carboxylate], the figures for the pKi in assay [1] and in assay [2] were 7.20 and 7.39, respectively.

On to `COC(=O)Nc1ccc2c(c1)NC(=O)CCCCC(C(=O)N1CC[C@@]3(C1)OC(=O)Nc1ccc(Cl)cc13)c1cc(F)cc-2c1` (stereo partly drawn) [Example 28, methyl (9-((R)-6-chloro-2-oxo-1,2-dihydrospiro[benzo[d][1,3]oxazine-4,3′-pyrrolidine]-1′-carbonyl)-1^5-fluoro-4-oxo-3-aza-1(1,3),2(1,2)-dibenzenacyclononaphane-2^4-yl)carbamate], for which the pKi in assay [1] is 7.90; in assay [2], 7.34.

For the molecule `CCOC(=O)C1CCCCC(C(=O)N2CCC[C@@]3(C2)OC(=O)Nc2ccc(Cl)c(F)c23)c2nc(c[nH]2)-c2ccc(NC(=O)OC)cc2N1` (single isomer, unassigned) [Example 32b], the pKi is 8.85 in assay [1] and 9.21 in assay [2].

Turning to `COC(=O)Nc1ccc2c(c1)NC(=O)CCCCC[C@@H](C(=O)N1CC[C@@]3(C1)OC(=O)Nc1ccc(Cl)c(F)c13)c1cc-2ccn1` [Example 18a, methyl ((R)-10-((R)-6-chloro-5-fluoro-2-oxo-1,2-dihydrospiro[benzo[d][1,3]oxazine-4,3′-pyrrolidine]-1′-carbonyl)-4-oxo-3-aza-1(4,2)-pyridina-2(1,2)-benzenacyclodecaphane-2^4-yl)carbamate], the values for the pKi in assay [1] and in assay [2] were 8.44 and 8.07, respectively.
